Results from publication PMC11672637, “7-O-Carboxylic Acid-Substituted 3-O-Alkyl Difluoroquercetin; An Aztreonam-Potentiating Agent Against Carbapenemase-Producing Pseudomonas aeruginosa Through Simultaneous Inhibition of Metallo-β-Lactamase and Efflux Pump” (Antibiotics, 2024).

Assays:
AmpC = assay: β-lactamase inhibition assay (nitrocefin); type: biochemical; settings: nitrocefin substrate; read-out: BLi, IC50 AmpC
Description: (§1) Recombinant AmpC, OXA-48 (residues 23–265) and VIM-2 (residues 27–266) were prepared from Escherichia coli based on previously established protocols. KPC-2 and NDM-1 are commercially available from LifeSpan Biosciences, Inc., Seattle, WA, USA (LS-G26598) and RayBiotech, Inc., Peachtree Corners, GA, USA (230-00554), respectively. For β-lactamase inhibition assay, in a 96-well plate, 70–0.1 μM (in PBS) of the synthesized compounds (1~14) (100 μL) were mixed with diluted β-lactamase stock (2% DMSO in 200 μL). In a separate 96-well plate, a substrate of AmpC, KPC-2, OXA-48, and VIM-2 (nitrocefin) and NDM-1 (imipenem) were added into each well (final concentrations of 70 μM for nitrocefin and 100 μM for imipenem). After incubation at 37 °C for 20 min, the mixture of the synthesized compounds (1~14) and β-lactamase in one plate was added to the substrate in the other plate. Enzymatic hydrolysis of the substrate was then monitored by a Cytation 5 imaging multimode reader (BioTek Instruments Inc., Winooski, VT, USA) at 486 nm and 300 nm for nitrocefin and imipenem, respectively, for 15 min. The rates of hydrolysis in the presence of the inhibitors were determined when the reaction rate plateaued. Comparison of the enzymatic hydrolysis rates in the presence and the absence of inhibitors (100%) provided the percentage of enzyme inhibition at each concentration of the synthesized compounds. The IC50 values were obtained after non-linear regression (sigmoidal dose-responses) by GraphPad Prism 5 (GraphPad Software, Boston, MA, USA).

[1] = test system: NDM-1-Producing P. aeruginosa (PA-017, blaNDM); assay: MIC / checkerboard with ATM; type: cell-based; design: key to Susceptibility category: S: susceptible; I: intermediate; R: resistant; settings: PA-017; for MIC: Pseudomonas aeruginosa, compound alone, read-out: MIC, Cmpd
[2] = test system: efflux pump activity in P. aeruginosa (PA-017, blaNDM); assay: EtBr accumulation, inhibition of efflux pump activity; type: cell-based; settings: EtBr fluorescence compared with positive control CCCP
Description: The NDM-producing P. aeruginosa clinical isolate (PA-017, blaNDM) (5 mL, LB medium) was grown to reach the mid-log phase. After centrifugation at 3500 rpm for 15 min, the bacterial pellet was washed twice with PBS and resuspended to OD600 = 0.3 in PBS. To each well of a flat-bottomed black 96-well plate, 182 µL of the bacterial suspension, 4 µL of glucose [final concentration = 0.4% (w/v)], 4 µL of the synthesized compounds or positive control CCCP, and 10 µL of EtBr (final concentration = 1 µg/mL) were added. The plate was incubated at 37 °C, and fluorescence emission from EtBr (λex 480 nm/λem 630 nm) was recorded every 2 min (for 60 min) using a Cytation 5 imaging multi-mode reader (BioTek Instruments, Inc., Winooski, VT, USA).

KPC-2 = molecular target: T1, KPC-2 (Klebsiella pneumoniae, UniProt Q9F663); assay: β-lactamase inhibition assay (nitrocefin); type: biochemical; settings: nitrocefin substrate; read-out: BLi, IC50 KPC-2
T1 construct: purchased LifeSpan Biosciences, Inc. LS-G26598
Description: as §1

VIM-2 = molecular target: T2, VIM-2 (Escherichia coli, UniProt Q5U7L7); assay: β-lactamase inhibition assay (nitrocefin); type: biochemical; settings: nitrocefin substrate; read-out: BLi, IC50 VIM-2
T2 construct: VIM-2 (residues 27–266); made in house; host or cells: Escherichia coli
Description: as §1

OXA-48 = molecular target: T3, OXA-48 (Klebsiella pneumoniae, UniProt Q6XEC0); assay: β-lactamase inhibition assay (nitrocefin); type: biochemical; settings: nitrocefin substrate; read-out: BLi, IC50 OXA-48
T3 construct: OXA-48 (residues 23–265); made in house; host or cells: Escherichia coli
Description: as §1

NDM-1 = molecular target: T4, NDM-1 (Klebsiella pneumoniae, UniProt C7C422); assay: β-lactamase inhibition assay (imipenem); type: biochemical; settings: imipenem substrate; read-out: BLi, IC50 NDM-1
T4 construct: purchased RayBiotech, Inc. 230-00554
Description: as §1

PA-002, blaIMP = assay: MIC / checkerboard with ATM; type: cell-based, P. aeruginosa; design: key to Susceptibility category: S: susceptible; I: intermediate; R: resistant; settings: PA-002, Table S2
PA-039, blaNDM = assay: MIC / checkerboard with ATM; type: cell-based, P. aeruginosa; design: key to Susceptibility category: S: susceptible; I: intermediate; R: resistant; settings: PA-039; Table S2
PA-041, blaNDM = assay: MIC / checkerboard with ATM; type: cell-based, P. aeruginosa; design: key to Susceptibility category: S: susceptible; I: intermediate; R: resistant; settings: PA-041; Table S2
PA-040, blaNDM = assay: MIC / checkerboard with ATM; type: cell-based, P. aeruginosa; design: key to Susceptibility category: S: susceptible; I: intermediate; R: resistant; settings: PA-040; Table S2
PA-016, blaIMP = assay: MIC / checkerboard with ATM; type: cell-based, P. aeruginosa; design: key to Susceptibility category: S: susceptible; I: intermediate; R: resistant; settings: PA-016; Table S2
PA-042, blaIMP/NDM = assay: MIC / checkerboard with ATM; type: cell-based, P. aeruginosa; design: key to Susceptibility category: S: susceptible; I: intermediate; R: resistant; settings: PA-042; Table S2
PA-030, blaIMP = assay: MIC / checkerboard with ATM; type: cell-based, P. aeruginosa; design: key to Susceptibility category: S: susceptible; I: intermediate; R: resistant; settings: PA-030; Table S2
PA-028, blaNDM = assay: MIC / checkerboard with ATM; type: cell-based, P. aeruginosa; design: key to Susceptibility category: S: susceptible; I: intermediate; R: resistant; settings: PA-028; Table S2
PA-038, blaNDM = assay: MIC / checkerboard with ATM; type: cell-based, P. aeruginosa; design: key to Susceptibility category: S: susceptible; I: intermediate; R: resistant; settings: PA-038; Table S2
PA-037, blaIMP/NDM = assay: MIC / checkerboard with ATM; type: cell-based, P. aeruginosa; design: key to Susceptibility category: S: susceptible; I: intermediate; R: resistant; settings: PA-037; Table S2
PA-009, blaGES = assay: MIC / checkerboard with ATM; type: cell-based, P. aeruginosa; design: key to Susceptibility category: S: susceptible; I: intermediate; R: resistant; settings: PA-009; Table S2
PA-034, blaNDM = assay: MIC / checkerboard with ATM; type: cell-based, P. aeruginosa; design: key to Susceptibility category: S: susceptible; I: intermediate; R: resistant; settings: PA-034; Table S2
PA-027, blaIMP = assay: MIC / checkerboard with ATM; type: cell-based, P. aeruginosa; design: key to Susceptibility category: S: susceptible; I: intermediate; R: resistant; settings: PA-027; Table S2
PA-044, blaNDM = assay: MIC / checkerboard with ATM; type: cell-based, P. aeruginosa; design: key to Susceptibility category: S: susceptible; I: intermediate; R: resistant; settings: PA-044; Table S2
PA-035, blaGES = assay: MIC / checkerboard with ATM; type: cell-based, P. aeruginosa; design: key to Susceptibility category: S: susceptible; I: intermediate; R: resistant; settings: PA-035, Table S2
PA-025, blaNDM = assay: MIC / checkerboard with ATM; type: cell-based, P. aeruginosa; design: key to Susceptibility category: S: susceptible; I: intermediate; R: resistant; settings: PA-025; Table S2
PA-003, blaVIM = assay: MIC / checkerboard with ATM; type: cell-based, P. aeruginosa; design: key to Susceptibility category: S: susceptible; I: intermediate; R: resistant; settings: PA-003, Table S2
PA-032, blaIMP = assay: MIC / checkerboard with ATM; type: cell-based, P. aeruginosa; design: key to Susceptibility category: S: susceptible; I: intermediate; R: resistant; settings: PA-032, Table S2
PA-021, blaIMP = assay: MIC / checkerboard with ATM; type: cell-based, P. aeruginosa; design: key to Susceptibility category: S: susceptible; I: intermediate; R: resistant; settings: PA-021; Table S2
PA-031, blaNDM = assay: MIC / checkerboard with ATM; type: cell-based, P. aeruginosa; design: key to Susceptibility category: S: susceptible; I: intermediate; R: resistant; settings: PA-031; Table S2
PA-029, blaIMP = assay: MIC / checkerboard with ATM; type: cell-based, P. aeruginosa; design: key to Susceptibility category: S: susceptible; I: intermediate; R: resistant; settings: PA-029; Table S2
PA-033, blaNDM = assay: MIC / checkerboard with ATM; type: cell-based, P. aeruginosa; design: key to Susceptibility category: S: susceptible; I: intermediate; R: resistant; settings: PA-033; Table S2
PA-026, blaNDM = assay: MIC / checkerboard with ATM; type: cell-based, P. aeruginosa; design: key to Susceptibility category: S: susceptible; I: intermediate; R: resistant; settings: PA-026, Table S2
PA-014, blaGES = assay: MIC / checkerboard with ATM; type: cell-based, P. aeruginosa; design: key to Susceptibility category: S: susceptible; I: intermediate; R: resistant; settings: PA-014; Table S2
PA-036, blaNDM = assay: MIC / checkerboard with ATM; type: cell-based, P. aeruginosa; design: key to Susceptibility category: S: susceptible; I: intermediate; R: resistant; settings: PA-036; Table S2
[3] = Pseudomonas aeruginosa, read-out: MIC value

T1 sequence (Q9F663 25-293, looked up, species assumed): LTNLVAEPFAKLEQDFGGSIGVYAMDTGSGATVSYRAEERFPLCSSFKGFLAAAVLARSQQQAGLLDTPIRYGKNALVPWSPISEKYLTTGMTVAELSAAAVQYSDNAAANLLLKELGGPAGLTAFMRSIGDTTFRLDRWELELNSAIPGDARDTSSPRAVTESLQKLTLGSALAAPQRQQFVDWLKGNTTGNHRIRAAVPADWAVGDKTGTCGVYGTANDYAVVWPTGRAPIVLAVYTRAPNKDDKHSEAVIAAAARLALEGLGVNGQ
T3 sequence (Q6XEC0 23-265 limits assumed): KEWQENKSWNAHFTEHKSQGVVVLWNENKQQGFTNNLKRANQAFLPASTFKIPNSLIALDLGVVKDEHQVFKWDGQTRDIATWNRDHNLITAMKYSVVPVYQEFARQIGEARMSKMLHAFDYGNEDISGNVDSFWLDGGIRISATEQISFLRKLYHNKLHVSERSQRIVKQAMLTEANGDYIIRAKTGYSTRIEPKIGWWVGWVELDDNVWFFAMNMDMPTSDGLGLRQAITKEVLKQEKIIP
T4 sequence (C7C422 29-270, looked up, species assumed): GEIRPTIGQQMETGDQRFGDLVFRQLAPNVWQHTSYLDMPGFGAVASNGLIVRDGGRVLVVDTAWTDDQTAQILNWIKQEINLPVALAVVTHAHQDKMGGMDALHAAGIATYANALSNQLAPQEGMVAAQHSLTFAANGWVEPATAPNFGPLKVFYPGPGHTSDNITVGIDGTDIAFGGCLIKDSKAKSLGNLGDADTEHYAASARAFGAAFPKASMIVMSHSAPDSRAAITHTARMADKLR

O=c1c(OCCC2CCCC2)c(-c2ccc(F)c(F)c2)oc2cc(O)cc(O)c12 [Compound 2] was tested, and the IC50 (AmpC) was 21 ± 2.1 µM, the “FD (fold decrease in the MIC of ATM upon combination with the compound)” value [1] was 2 and the MIC [1] was over 256 µg/mL. For the same compound, the “EPi (inhibition of efflux pump activity)” value [2] was “↑↑↑ ^e”.

For O=c1c(OCCC2CCCCC2)c(-c2ccc(F)c(F)c2)oc2cc(O)cc(O)c12 [Compound 3], the IC50 (AmpC) was 15.3 ± 1.5 µM, the “FD (fold decrease in the MIC of ATM upon combination with the compound)” value [1] was 4 and the MIC [1] was over 256 µg/mL. The “EPi (inhibition of efflux pump activity)” value [2] was “↑↑↑ ^e”.

O=C(O)CC(Oc1cc(O)c2c(=O)c(OCCC3CCCCC3)c(-c3ccc(F)c(F)c3)oc2c1)C(=O)O (stereo not drawn) [Compound 4, 2-((3-(2-Cyclohexylethoxy)-2-(3,4-difluorophenyl)-5-hydroxy-4-oxo-4H-chromen-7-yl)oxy)succinic Acid] gave an IC50 (KPC-2) of over 50 µM, an IC50 (AmpC) of over 50 µM and an IC50 (VIM-2) of over 100 µM. For the same compound, the IC50 (OXA-48) was over 100 µM, the IC50 (NDM-1) was over 50 µM and the “FD (fold decrease in the MIC of ATM upon combination with the compound)” value [1] was 1. The MIC [1] was over 256 µg/mL and the “EPi (inhibition of efflux pump activity)” value [2] was “- ^f”.

O=C(O)COc1cc(O)c2c(=O)c(OCCC3CCCC3)c(-c3ccc(F)c(F)c3)oc2c1 [Compound 6, 2-((3-(2-Cyclopentylethoxy)-2-(3,4-difluorophenyl)-5-hydroxy-4-oxo-4H-chromen-7-yl)oxy)acetic Acid] was tested, and the IC50 (KPC-2) was over 50 µM, the IC50 (AmpC) was over 50 µM and the IC50 (VIM-2) was 37.3 ± 0.6 µM. The IC50 (OXA-48) was over 100 µM, the IC50 (NDM-1) was 16.1 ± 1.1 µM and the “FD (fold decrease in the MIC of ATM upon combination with the compound)” value [1] was 4. For the same compound, the MIC [1] was over 256 µg/mL and the “EPi (inhibition of efflux pump activity)” value [2] was “↑ ^g”.

O=C(O)COc1cc(O)c2c(=O)c(OCCC3CCCCC3)c(-c3ccc(F)c(F)c3)oc2c1 [Compound 7, 2-((3-(2-Cyclohexylethoxy)-2-(3,4-difluorophenyl)-5-hydroxy-4-oxo-4H-chromen-7-yl)oxy)acetic Acid] was tested, and the IC50 (KPC-2) was over 50 µM, the IC50 (AmpC) was over 50 µM and the IC50 (VIM-2) was 21 ± 1.3 µM. The IC50 (OXA-48) was over 100 µM, the IC50 (NDM-1) was 14.7 ± 1.6 µM and the “FD (fold decrease in the MIC of ATM upon combination with the compound)” value [1] was 4. The MIC [1] was over 256 µg/mL and the “EPi (inhibition of efflux pump activity)” value [2] was “↑ ^g”.

C[C@@H](O)[C@H]1C(=O)N2C(C(=O)O)=C(S[C@@H]3CN[C@H](C(=O)N(C)C)C3)[C@H](C)[C@H]12 [MEM, meropenem, reference compound] was tested, and the Susceptibility category (PA-002, blaIMP) was “R”, the MIC (PA-002, blaIMP; [3]) was over 32 µg/mL and the Susceptibility category (PA-039, blaNDM) was “R”. For the same compound, the Susceptibility category (PA-041, blaNDM) was “R”, the Susceptibility category (PA-040, blaNDM) was “R” and the Susceptibility category (PA-016, blaIMP) was “R”. The Susceptibility category (PA-042, blaIMP/NDM) was “R”, the Susceptibility category (PA-030, blaIMP) was “R” and the Susceptibility category (PA-028, blaNDM) was “R”. For the same compound, the Susceptibility category (PA-038, blaNDM) was “R”, the Susceptibility category (PA-037, blaIMP/NDM) was “R” and the Susceptibility category (PA-009, blaGES) was “R”. For the same compound, the Susceptibility category (PA-034, blaNDM) was “R”, the Susceptibility category (PA-027, blaIMP) was “R” and the Susceptibility category (PA-044, blaNDM) was “R”. For the same compound, the Susceptibility category (PA-035, blaGES) was “R”, the MIC (PA-035, blaGES; [3]) was 16 µg/mL and the Susceptibility category (PA-025, blaNDM) was “R”. For the same compound, the Susceptibility category (PA-003, blaVIM) was “R”, the MIC (PA-003, blaVIM; [3]) was 16 µg/mL and the Susceptibility category (PA-032, blaIMP) was “R”. The MIC (PA-032, blaIMP; [3]) was 32 µg/mL, the Susceptibility category (PA-021, blaIMP) was “R” and the Susceptibility category (PA-031, blaNDM) was “R”. For the same compound, the Susceptibility category (PA-029, blaIMP) was “R”, the Susceptibility category (PA-033, blaNDM) was “R” and the Susceptibility category (PA-026, blaNDM) was “S”. The MIC (PA-026, blaNDM; [3]) was at most 0.25 µg/mL, the Susceptibility category (PA-014, blaGES) was “R” and the Susceptibility category ([1]; Table S2) was “R”. For the same compound, the Susceptibility category (PA-036, blaNDM) was “R”.
